Active and inactive are the calls of the source. The rule behind the calls is not given here.

This note sets out measurements from ChEMBL document CHEMBL4196070, “Development of Piperazinediones as dual inhibitor for treatment of Alzheimer's disease” (Eur J Med Chem, 2018).

A short description of experiment [1]: Selectivity index, ratio of IC50 for electric eel AChE to IC50 for equine serum BuChE.
Experiment [2] is described as follows: Antioxidant activity assessed as DPPH radical scavenging activity at 10 uM after 25 mins. In kind it is functional. For orientation: The DPPH test is a chemical assay of radical scavenging.
A short description of experiment [3]: Antioxidant activity assessed as DPPH radical scavenging activity at 20 uM after 25 mins. It counts as functional.
For experiment [4], the system named is Mus musculus. The experiment can be described thus: Reversal of scopolamine-induced amnesic effect in Swiss albino mouse assessed as reversal of lowered spontaneous alteration at 10 mg/kg, ip administered once daily for 7 days prior to 4 hrs of training followed by scopolamine challenge and measured after 5 mins by Y-maze test. It counts as functional, organism-based.

The test system of experiment [5] is Mus musculus. Nature of the experiment: Reversal of scopolamine-induced neophobia in Swiss albino mouse assessed as increase in number of novel arm entries at 5 to 10 mg/kg, ip administered once daily for 7 days prior to 4 hrs of training followed by scopolamine challenge and measured after 5 mins by Y-maze test. It counts as functional, organism-based.
In experiment [6] the test system is Mus musculus. Nature of the experiment: Anxiolytic activity in Swiss albino mouse assessed as increase in time spent in novel arm at 20 mg/kg, ip administered once daily for 7 days prior to 4 hrs of training followed by scopolamine challenge and measured after 5 mins by Y-maze test. It counts as functional, organism-based.
Experiment [7] has as its system Mus musculus. The experiment can be described thus: Reversal of scopolamine-induced anxiety in Swiss albino mouse assessed as increase in number of novel arm entries at 5 to 10 mg/kg, ip administered once daily for 7 days prior to 4 hrs of training followed by scopolamine challenge and measured after 5 mins by Y-maze test. It counts as functional, organism-based.

In experiment [8] the test system is Mus musculus. Nature of the experiment: Restoration of brain mitochondrial membrane potential in scopolamine-induced Swiss albino mouse amnesia model at 5 mg/kg, ip administered once daily for 7 days followed by scopolamine challenge by tetramethylrhodamine dye-based fluorescence assay. In kind it is functional, organism-based.
Experiment [9] deals with Mus musculus. The experiment can be described thus: Antialzheimer activity in Swiss albino mouse assessed as reversal of scopolamine-induced AChE level in brain at 10 mg/kg, ip administered once daily for 7 days followed by scopalamine challenge using acetylthiocholine iodide as substrate by Ellman's method. It counts as functional, organism-based.
Experiment [10] deals with Mus musculus. Nature of the experiment: Restoration of brain catalase level in scopolamine-induced Swiss albino mouse amnesia model at 10 mg/kg, ip administered once daily for 7 days followed by scopolamine challenge by spectrophotometric analysis. It counts as functional, organism-based.
The test system of experiment [11] is Mus musculus. Nature of the experiment: Neuroprotective activity in scopolamine-induced amnesia Swiss albino mouse model assessed as decrease in neurodegenerative lesions in brain at 10 mg/kg, ip administered once daily for 7 days followed by scopolamine challenge by histopathological method. It counts as functional, organism-based.
For experiment [12], the system named is Mus musculus. Nature of the experiment: Reversal of scopolamine-induced memory deficit in Swiss albino mouse assessed as increase in transfer latency time of retention trial at 10 mg/kg, ip administered once daily for 7 days followed by scopolamine challenge and subsequent training session for 5 mins by passive avoidance test. In kind it is functional, organism-based.

For experiment [13], the target named is Acetylcholinesterase (Electrophorus electricus) (UniProt O42275). Nature of the experiment: Ratio of Vmax to Km for substrate for inhibition of electric eel AChE at 10 nM preincubated for 30 mins followed acetylthiocholine iodide substrate addition by Lineweaver-Burk plot analysis.
Experiment [14] has the same target. Nature of the experiment: Ratio of Vmax to Km for substrate for inhibition of electric eel AChE at 20 nM preincubated for 30 mins followed acetylthiocholine iodide substrate addition by Lineweaver-Burk plot analysis.
Experiment [15] has the same target. The experiment can be described thus: Ratio of Vmax to Km for substrate for inhibition of electric eel AChE at 40 nM preincubated for 30 mins followed acetylthiocholine iodide substrate addition by Lineweaver-Burk plot analysis.
The nature of experiment [16]: Metal chelating activity assessed as compound-Cu2+ complex formation at 600 uM after 8 hrs by UV spectroscopic analysis.
The subject of experiment [17] is Mus musculus. The experiment can be described thus: Reversal of scopolamine-induced amnesic effect in Swiss albino mouse assessed as reversal of lowered spontaneous alteration at 5 mg/kg, ip administered once daily for 7 days prior to 4 hrs of training followed by scopolamine challenge and measured after 5 mins by Y-maze test. It counts as functional, organism-based.

Experiment [18] concerns Mus musculus. The experiment can be described thus: Reversal of scopolamine-induced neophobia in Swiss albino mouse assessed as increase in number of novel arm entries at 5 mg/kg, ip administered once daily for 7 days prior to 4 hrs of training followed by scopolamine challenge and measured after 5 mins by Y-maze test. It counts as functional, organism-based.
Experiment [19] has as its system Mus musculus. Nature of the experiment: Reversal of scopolamine-induced anxiety in Swiss albino mouse assessed as increase in number of novel arm entries at 5 mg/kg, ip administered once daily for 7 days prior to 4 hrs of training followed by scopolamine challenge and measured after 5 mins by Y-maze test. It counts as functional, organism-based.
Experiment [20] concerns Mus musculus. Nature of the experiment: Reversal of scopolamine-induced neophobia in Swiss albino mouse assessed as increase in number of novel arm entries at 10 mg/kg, ip administered once daily for 7 days prior to 4 hrs of training followed by scopolamine challenge and measured after 5 mins by Y-maze test. It counts as functional, organism-based.
The subject of experiment [21] is Mus musculus. The experiment can be described thus: Reversal of scopolamine-induced anxiety in Swiss albino mouse assessed as increase in number of novel arm entries at 10 mg/kg, ip administered once daily for 7 days prior to 4 hrs of training followed by scopolamine challenge and measured after 5 mins by Y-maze test. It counts as functional, organism-based.
For experiment [22], the system named is Mus musculus. Nature of the experiment: Reversal of scopolamine-induced memory deficit in ip dosed Swiss albino mouse assessed as increase in transfer latency time of retention trial administered once daily for 7 days followed by scopolamine challenge and subsequent training session for 5 mins by passive avoidance test. In kind it is functional, organism-based.

Experiment [23] relates to Mus musculus. The experiment can be described thus: Antialzheimer activity in Swiss albino mouse assessed as reversal of scopolamine-induced AChE level in brain at 5 mg/kg, ip administered once daily for 7 days followed by scopalamine challenge using acetylthiocholine iodide as substrate by Ellman's method. In kind it is functional, organism-based. (In general: In Ellman's method for cholinesterases, released thiocholine reacts with DTNB.)

Acetylcholinesterase (Electrophorus electricus), sequence (O42275 24-633 limits assumed): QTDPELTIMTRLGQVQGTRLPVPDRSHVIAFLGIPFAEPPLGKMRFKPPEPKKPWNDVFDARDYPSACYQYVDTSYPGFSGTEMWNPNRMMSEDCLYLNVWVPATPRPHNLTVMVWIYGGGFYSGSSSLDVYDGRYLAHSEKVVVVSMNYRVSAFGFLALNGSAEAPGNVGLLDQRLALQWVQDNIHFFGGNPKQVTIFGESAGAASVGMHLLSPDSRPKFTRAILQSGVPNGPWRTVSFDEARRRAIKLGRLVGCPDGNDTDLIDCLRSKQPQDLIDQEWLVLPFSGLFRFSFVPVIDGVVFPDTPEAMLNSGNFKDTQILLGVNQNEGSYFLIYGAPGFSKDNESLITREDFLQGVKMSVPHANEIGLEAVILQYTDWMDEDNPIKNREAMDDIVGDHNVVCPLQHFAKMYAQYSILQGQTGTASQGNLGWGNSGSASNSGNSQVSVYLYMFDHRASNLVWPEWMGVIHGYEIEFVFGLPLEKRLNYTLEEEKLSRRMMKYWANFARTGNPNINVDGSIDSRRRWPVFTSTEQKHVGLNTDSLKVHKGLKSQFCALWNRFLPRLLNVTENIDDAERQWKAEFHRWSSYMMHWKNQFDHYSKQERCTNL

`O=C1C(Cc2ccccc2)N(S(=O)(=O)c2ccc(Cl)cc2)C(=O)C(Cc2ccccc2)N1S(=O)(=O)c1ccc(Cl)cc1` (stereo unspecified): the Ratio IC50 in [1] worked out at 0.2. The results for the Activity in [2] and in experiment [3] were 48.1% and 60%, respectively. For the same compound, the result in the experiment with Mus musculus [4], in the experiment with Mus musculus [5], in the experiment on Mus musculus [6], in the experiment on Mus musculus [7], in the experiment with Mus musculus [8] and with Mus musculus [9] was Active. The outcome in the experiment with Mus musculus [10] and with Mus musculus [11] was Active.
Consider `O=C1CN(S(=O)(=O)c2ccc(Cl)cc2)C(=O)CN1S(=O)(=O)c1ccc(Cl)cc1`, for which the Ratio IC50 in [1] turned out to be 0.3. Moreover, the Activity in experiment [2] came to 36.2%; in experiment [3], 55.2%.
In the case of `Cc1ccc(S(=O)(=O)N2CC(=O)N(S(=O)(=O)c3ccc(C)cc3)CC2=O)cc1`, the Ratio IC50 in experiment [1] is less than 0.6. For the same compound, the Activity in experiment [2] worked out at 34.8%; in experiment [3], 46.7%.
`O=C1C(c2ccccc2)N(S(=O)(=O)c2ccc([N+](=O)[O-])cc2)C(=O)C(c2ccccc2)N1S(=O)(=O)c1ccc([N+](=O)[O-])cc1` (stereo unspecified): the Ratio IC50 in experiment [1] was found to be 0.3. Further, the Activity in [2] worked out at 42.4%; in experiment [3], 54.3%.
The corresponding values for `O=C1C(c2ccccc2)N(S(=O)(=O)c2cccc(Br)c2)C(=O)C(c2ccccc2)N1S(=O)(=O)c1cccc(Br)c1` (stereo unspecified) are 0.4, 46.2% and 63.3%.
For the compound `COc1ccc(S(=O)(=O)N2CC(=O)N(S(=O)(=O)c3ccc(OC)cc3)CC2=O)cc1`, the Ratio IC50 in experiment [1] is less than 0.5. In addition, the Activity in experiment [2] worked out at 48.6%; in [3], 57.6%.
As to `CCCS(=O)(=O)N1CC(=O)N(S(=O)(=O)CCC)CC1=O`, the Activity was 31.4% in [2] and 59.2% in [3].
Turning to `O=C1C(c2ccccc2)N(S(=O)(=O)c2ccc(Br)cc2)C(=O)C(c2ccccc2)N1S(=O)(=O)c1ccc(Br)cc1` (stereo unspecified), the Ratio IC50 in experiment [1] came to 0.2. For the same compound, the values for the Activity in [2] and in experiment [3] were 45.7% and 63.8%, respectively.
As for `O=C1C(Cc2ccccc2)N(S(=O)(=O)c2cccc(O)c2)C(=O)C(Cc2ccccc2)N1S(=O)(=O)c1cccc(O)c1` (stereo unspecified), the Ratio IC50 in experiment [1] was found to be 0.3. The Activity in experiment [2] was 57.1%; in [3] it was 66.2%.
As to `O=C1C(c2ccccc2)N(S(=O)(=O)c2ccc(O)cc2)C(=O)C(c2ccccc2)N1S(=O)(=O)c1ccc(O)cc1` (stereo unspecified), in [1], the Ratio IC50 was less than 0.4. The Activity amounted to 52.9% in experiment [2] and 65.2% in experiment [3].
The corresponding values for `O=C1C(Cc2ccccc2)N(S(=O)(=O)c2cccc(Br)c2)C(=O)C(Cc2ccccc2)N1S(=O)(=O)c1cccc(Br)c1` (stereo unspecified) are 0.4, 46.7% and 64.3%.
For `O=C1CN(S(=O)(=O)c2ccc(F)cc2)C(=O)CN1S(=O)(=O)c1ccc(F)cc1`, in that order: 0.4, 37.1% and 50.5%.
The corresponding values for `O=C1C(Cc2ccccc2)N(S(=O)(=O)c2ccc(Br)cc2)C(=O)C(Cc2ccccc2)N1S(=O)(=O)c1ccc(Br)cc1` (stereo unspecified) are 0.3, 47.6% and 64.8%.
Regarding `COc1cc2c(cc1OC)C(=O)C(CC1CCN(Cc3ccccc3)CC1)C2` (stereo unspecified), the Activity in [2] worked out at 60.1%; in [3] it was 74.6%. In the experiment on Mus musculus [12], the result was Active.
Turning to `Nc1ccc(S(=O)(=O)N2CC(=O)N(S(=O)(=O)c3ccc(N)cc3)CC2=O)cc1`, the Ratio IC50 in experiment [1] was less than 0.4. For the same compound, the Activity is 55.7% in experiment [2] and 62.9% in experiment [3].
On to `O=C1C(Cc2ccccc2)N(S(=O)(=O)c2ccc([N+](=O)[O-])cc2)C(=O)C(Cc2ccccc2)N1S(=O)(=O)c1ccc([N+](=O)[O-])cc1` (stereo unspecified), for which, in [1], the Ratio IC50 came out at 0.4. The values for the Activity in [2] and in experiment [3] were 42.9% and 54.8%, respectively.
The corresponding values for `Cc1ccc(S(=O)(=O)N2C(=O)C(c3ccccc3)N(S(=O)(=O)c3ccc(C)cc3)C(=O)C2c2ccccc2)cc1` (stereo unspecified) are less than 0.4, 38.1% and 56.2%.
With `O=C1O[C@H]([C@@H](O)CO)C(O)=C1O`, the Activity came out at 37.1% in [2] and 48.8% in experiment [3].
In the case of `Cc1cccc(S(=O)(=O)N2C(=O)C(c3ccccc3)N(S(=O)(=O)c3cccc(C)c3)C(=O)C2c2ccccc2)c1` (stereo unspecified), the Ratio IC50 in experiment [1] is less than 0.4. The Activity turned out to be 38.6% in experiment [2] and 55.2% in [3].
In the case of `O=C1C(Cc2ccccc2)N(S(=O)(=O)c2ccc(O)cc2)C(=O)C(Cc2ccccc2)N1S(=O)(=O)c1ccc(O)cc1` (stereo unspecified), the Ratio IC50 in [1] turned out to be 0.3. The figures for the Activity in experiment [2] and in experiment [3] were 58.1% and 68.6%, respectively.
The corresponding values for `Nc1ccc(S(=O)(=O)N2C(=O)C(c3ccccc3)N(S(=O)(=O)c3ccc(N)cc3)C(=O)C2c2ccccc2)cc1` (stereo unspecified) are less than 0.5, 56.2% and 66.7%.
As to `CCCCS(=O)(=O)N1CC(=O)N(S(=O)(=O)CCCC)CC1=O`, the Activity in experiment [2] turned out to be 65.7%; in experiment [3], 56.7%.
With `O=C1CN(S(=O)(=O)c2cccc(Cl)c2)C(=O)CN1S(=O)(=O)c1cccc(Cl)c1`, the Ratio IC50 in [1] came out at 0.3. Also, the values for the Activity in [2] and in [3] were 35.7% and 55.2%, respectively.
Take `O=C1CN(S(=O)(=O)c2ccccc2)C(=O)CN1S(=O)(=O)c1ccccc1`: the Activity in experiment [2] was 39.5%; in experiment [3], 52.4%.
On to `O=C1C(c2ccccc2)N(S(=O)(=O)c2ccc(Cl)cc2)C(=O)C(c2ccccc2)N1S(=O)(=O)c1ccc(Cl)cc1` (stereo unspecified), for which the Ratio IC50 in experiment [1] amounted to 0.2. For the same compound, the Vmax/Km was found to be 0.104 U/min/nM in experiment [13], 0.0696 U/min/nM in experiment [14] and 0.00052 U/min/nM in experiment [15]. For the same compound, the Activity in experiment [2] was 52.9%; in experiment [3] it was 60.3%; in the experiment on Mus musculus [22], “Dose-dependent effect”. In addition, the result (in [16]; in the experiment on Mus musculus [17]; in the experiment with Mus musculus [6]; with Mus musculus [18]; in the experiment with Mus musculus [19]; in the experiment with Mus musculus [8]) was Active. The outcome with Mus musculus [23] and with Mus musculus [11] was Active. Besides, the outcome in the experiment with Mus musculus [20] and in the experiment with Mus musculus [21] was inactive.
In the case of `O=C1CN(S(=O)(=O)c2ccc(Br)cc2)C(=O)CN1S(=O)(=O)c1ccc(Br)cc1`, the Ratio IC50 in experiment [1] is 0.4. Further, the results for the Activity in experiment [2] and in experiment [3] were 47.1% and 60.4%, respectively.
